# Data published in article PMC8854719, “Phase 1A/1B dose-escalation and -expansion study to evaluate the safety, pharmacokinetics, food effects and antitumor activity of pamiparib in advanced solid tumours” (British Journal of Cancer, 2021).
# Test: Safety and tolerability: adverse events, dose-limiting toxicities, MTD, RP2D (Phase 1A/1B)
# Format: in vivo
# Method: This was an open-label, Phase 1, dose-escalation/dose-expansion study, conducted across six study centres in Australia. The dose-escalation phase evaluated twice-daily (BID) and once-daily (QD) dosing, and the dose-expansion phase evaluated the BID RP2D from the dose-escalation phase and food effects (Fig. 1). The food-effects cohort comprised two sequences: fast followed by fed (sequence 1) and fed followed by fast (sequence 2). […] The decision to proceed to the next dose cohort was determined by the Safety Monitoring Committee and followed a modified 3 + 3 escalation scheme. […] When ≥2 DLTs occurred in the first 23 days of a dose level, the next lower dose level was declared the MTD. Safety was monitored and DLTs were assessed in all dose cohorts. […] The food-effects cohort investigated the effects of food on the PK of pamiparib in patients with advanced solid tumours.
# The QD dosing regimen was added as an amendment to the protocol with the purpose of exploring the feasibility of a more convenient regimen.
# Safety and tolerability were assessed throughout the study by monitoring adverse events (AEs), serious AEs, clinical laboratory measurements and physical examinations. Adverse events were categorised according to their severity (National Cancer Institute Common Terminology Criteria for Adverse Events v4.03) and relationship to the study treatment.
# [1] = 101 total patients, dose escalation and expansion
# [2] = BID dose-escalation (2.5–120 mg), 45 patients
# [3] = BID dose-escalation, 45 patients
# [4] = Dose Escalation and Dose Expansion (N=101)
# [5] = Total BID dose escalation (N = 45)
# [6] = Total QD dose escalation (N=19)
smiles,measurement,setting,value
C[C@]12CCCN1CC1=NNC(=O)c3cc(F)cc4[nH]c2c1c34 [pamiparib],Serious AE: nausea,101 patients,4.0%
same,Serious AE: pleural effusion,101 patients,3.0%
same,Serious AE: pneumonia,101 patients,3.0%
same,Serious AE: small intestinal obstruction,101 patients,5.0%
same,Serious AEs,101 patients (44 patients),43.6%
same,Anaemia leading to dose reduction/interruption,101 total patients,21.8%
same,Haematologic AEs leading to dose reduction/interruption,101 total patients,23.8%
same,Neutropenia leading to dose reduction/interruption,101 total patients,5.9%
same,Thrombocytopenia leading to dose reduction/interruption,101 total patients,4.0%
same,Adverse events leading to treatment discontinuation,101 total patients (six patients),5.9%
same,"Anaemia, Grades ≥3",[1],24.8%
same,"Anaemia, all Grades",[1],35.6%
same,"Diarrhoea, Grades ≥3",[1],2.0%
same,"Diarrhoea, all Grades",[1],32.7%
same,"Fatigue, Grades ≥3",[1],3.0%
same,"Fatigue, all Grades",[1],48.5%
same,"Increased alanine aminotransferase, Grades ≥3",[1],5.0%
same,"Increased alanine aminotransferase, all Grades",[1],11.9%
same,"Nausea, Grades ≥3",[1],4.0%
same,"Nausea, all Grades",[1],69.3%
same,"Neutropenia, Grades ≥3",[1],5.9%
same,"Neutropenia, all Grades",[1],9.9%
same,"Vomiting, Grades ≥3",[1],1.0%
same,"Vomiting, all Grades",[1],31.7%
same,Treatment-related grade ≥3 AEs,120-mg BID dosage cohort,60.0%
same,Treatment-related grade ≥3 AEs,160-mg QD dosage cohort,63.6%
same,Patients with a grade ≥3 AE,"BID dosage cohort, dose escalation (N=45)",62.2%
same,"Anaemia, AE",[2],33.3%
same,"Diarrhoea, AE",[2],28.9%
same,"Fatigue, AE",[2],33.3%
same,"Nausea, AE",[2],64.4%
same,"Vomiting, AE",[2],35.6%
same,Treatment-related AEs leading to dose interruptions,[3],31.1%
same,Treatment-related AEs leading to dose reductions,[3],6.7%
same,Maximum tolerated dose (MTD),BID dosing,80 mg
same,Recommended Phase 2 dose (RP2D),BID dosing,60 mg
same,"Abdominal pain, All Grades",[4],17 (16.8) n (%)
same,"Abdominal pain, Grade ≥3",[4],1 (1.0) n (%)
same,"Anemia, All Grades",[4],36 (35.6) n (%)
same,"Anemia, Grade ≥3",[4],25 (24.8) n (%)
same,"Constipation, All Grades",[4],21 (20.8) n (%)
same,"Constipation, Grade ≥3",[4],0 n (%)
same,"Decreased appetite, All Grades",[4],23 (22.8) n (%)
same,"Decreased appetite, Grade ≥3",[4],0 n (%)
same,"Diarrhea, All Grades",[4],33 (32.7) n (%)
same,"Diarrhea, Grade ≥3",[4],2 (2.0) n (%)
same,"Fatigue, All Grades",[4],49 (48.5) n (%)
same,"Fatigue, Grade ≥3",[4],3 (3.0) n (%)
same,"Headache, All Grades",[4],12 (11.9) n (%)
same,"Headache, Grade ≥3",[4],0 n (%)
same,"Increased alanine aminotransferase, All Grades",[4],12 (11.9) n (%)
same,"Increased alanine aminotransferase, Grade ≥3",[4],5 (5.0) n (%)
same,"Increased aspartate aminotransferase, All Grades",[4],10 (9.9) n (%)
same,"Increased aspartate aminotransferase, Grade ≥3",[4],3 (3.0) n (%)
same,"Nausea, All Grades",[4],70 (69.3) n (%)
same,"Nausea, Grade ≥3",[4],4 (4.0) n (%)
same,"Neutropenia, All Grades",[4],10 (9.9) n (%)
same,"Neutropenia, Grade ≥3",[4],6 (5.9) n (%)
same,"Upper respiratory tract infection, All Grades",[4],12 (11.9) n (%)
same,"Upper respiratory tract infection, Grade ≥3",[4],0 n (%)
same,"Urinary tract infection, All Grades",[4],14 (13.9) n (%)
same,"Urinary tract infection, Grade ≥3",[4],1 (1.0) n (%)
same,"Vomiting, All Grades",[4],32 (31.7) n (%)
same,"Vomiting, Grade ≥3",[4],1 (1.0) n (%)
same,Patients with a grade ≥3 AE,"QD dosage cohort, dose escalation (N=19)",73.7%
same,Treatment-related AEs leading to dose interruptions,QD dosage group (N=19),57.9%
same,Treatment-related AEs leading to dose reductions,QD dosage group (N=19),5.3%
same,"Diarrhea, AE",QD dosage group overall (N=19),47.4%
same,"Fatigue, AE",QD dosage group overall (N=19),68.4%
same,"Nausea, AE",QD dosage group overall (N=19),73.7%
same,Maximum tolerated dose (MTD),QD dosing,160 mg
same,Recommended Phase 2 dose (RP2D),QD dosing,120 mg
same,"Abdominal pain, AE of any grade",[5],9 (20.0) n (%)
same,"Anaemia, AE of any grade",[5],15 (33.3) n (%)
same,"Ascites, AE of any grade",[5],5 (11.1) n (%)
same,"Back pain, AE of any grade",[5],4 (8.9) n (%)
same,"Constipation, AE of any grade",[5],8 (17.8) n (%)
same,"Cough, AE of any grade",[5],4 (8.9) n (%)
same,"Decreased appetite, AE of any grade",[5],5 (11.1) n (%)
same,"Diarrhoea, AE of any grade",[5],13 (28.9) n (%)
same,Dose-limiting toxicity,[5],4 (8.9) n (%)
same,"Dyspnoea, AE of any grade",[5],3 (6.7) n (%)
same,"Fatigue, AE of any grade",[5],15 (33.3) n (%)
same,"Headache, AE of any grade",[5],4 (8.9) n (%)
same,"Hypoalbuminemia, AE of any grade",[5],3 (6.7) n (%)
same,"Hypomagnesemia, AE of any grade",[5],4 (8.9) n (%)
same,"Hypophosphatemia, AE of any grade",[5],3 (6.7) n (%)
same,"Increased AST, AE of any grade",[5],3 (6.7) n (%)
same,"Muscle spasms, AE of any grade",[5],4 (8.9) n (%)
same,"Nausea, AE of any grade",[5],29 (64.4) n (%)
same,"Neutropenia, AE of any grade",[5],6 (13.3) n (%)
same,"Non-cardiac chest pain, AE of any grade",[5],3 (6.7) n (%)
same,"Pain in extremity, AE of any grade",[5],3 (6.7) n (%)
same,"Peripheral sensory neuropathy, AE of any grade",[5],3 (6.7) n (%)
same,"Pleural effusion, AE of any grade",[5],4 (8.9) n (%)
same,"Pyrexia, AE of any grade",[5],4 (8.9) n (%)
same,Treatment-emergent AE,[5],45 (100.0) n (%)
same,Treatment-emergent AE: Grade 3 or higher,[5],28 (62.2) n (%)
same,Treatment-emergent AE: Leading to death,[5],4 (8.9) n (%)
same,Treatment-emergent AE: Leading to dose interruption,[5],27 (60.0) n (%)
same,Treatment-emergent AE: Leading to dose modification,[5],27 (60.0) n (%)
same,Treatment-emergent AE: Leading to dose reduction,[5],3 (6.7) n (%)
same,Treatment-emergent AE: Leading to treatment discontinuation,[5],3 (6.7) n (%)
same,Treatment-emergent AE: Serious,[5],25 (55.6) n (%)
same,Treatment-related AE,[5],35 (77.8) n (%)
same,Treatment-related AE: Grade 3 or higher,[5],10 (22.2) n (%)
same,Treatment-related AE: Leading to death,[5],0 (0.0) n (%)
same,Treatment-related AE: Leading to dose interruption,[5],14 (31.1) n (%)
same,Treatment-related AE: Leading to dose modification,[5],14 (31.1) n (%)
same,Treatment-related AE: Leading to dose reduction,[5],3 (6.7) n (%)
same,Treatment-related AE: Leading to treatment discontinuation,[5],2 (4.4) n (%)
same,Treatment-related AE: Serious,[5],3 (6.7) n (%)
same,"Upper respiratory tract infection, AE of any grade",[5],8 (17.8) n (%)
same,"Urinary tract infection, AE of any grade",[5],8 (17.8) n (%)
same,"Vomiting, AE of any grade",[5],16 (35.6) n (%)
same,Dose-limiting toxicity,[6],1 (5.3) n (%)
same,Treatment-emergent AE,[6],19 (100.0) n (%)
same,Treatment-emergent AE: Grade 3 or higher,[6],14 (73.7) n (%)
same,Treatment-emergent AE: Leading to death,[6],0 (0.0) n (%)
same,Treatment-emergent AE: Leading to dose interruption,[6],13 (68.4) n (%)
same,Treatment-emergent AE: Leading to dose modification,[6],13 (68.4) n (%)
same,Treatment-emergent AE: Leading to dose reduction,[6],1 (5.3) n (%)
same,Treatment-emergent AE: Leading to treatment discontinuation,[6],2 (10.5) n (%)
same,Treatment-emergent AE: Serious,[6],6 (31.6) n (%)
same,Treatment-related AE,[6],17 (89.5) n (%)
same,Treatment-related AE: Grade 3 or higher,[6],10 (52.6) n (%)
same,Treatment-related AE: Leading to death,[6],0 (0.0) n (%)
same,Treatment-related AE: Leading to dose interruption,[6],11 (57.9) n (%)
same,Treatment-related AE: Leading to dose modification,[6],11 (57.9) n (%)
same,Treatment-related AE: Leading to dose reduction,[6],1 (5.3) n (%)
same,Treatment-related AE: Leading to treatment discontinuation,[6],2 (10.5) n (%)
same,Treatment-related AE: Serious,[6],1 (5.3) n (%)
